This note sets out measurements from patent US9149471B2, “Therapeutic agent for osteoporosis” (NATIONAL UNIV. CORP. TOKYO UNIV. OF AG. AND TECH, priority 2013, dated 2015).

The subject of data set [1] is mouse model intratibially transplanted with an A549-luc-BM1 human lung cancer cell line. Briefly: Abnormal bone formation and bone resorption in mouse model intratibially transplanted with A549-luc-BM1 cells (μCT). Type of data set: in vivo. The settings on record: A549-luc-BM1 in mouse tibia. An excerpt: Inhibitory Effect on the Abnormal Bone Formation and Bone Resorption in the Mouse Model Intratibially Transplanted an A549-Luc-BM1 Human Lung Cancer Cell Line The A549 human lung cancer cell line in which the luciferase gene was transfected was transplanted in the left ventricle of nude mice, whereby the A549-luc-BM1 lung cancer cell line, which selectively metastasizes to and proliferates in the bone, was established. The cells thus obtained were transplanted in the mouse tibia at 2×10^6 cells/15 μL. On Day 7 after transplantation, the luciferase activity in the graft site was measured by an in-vivo imaging system. Subsequently, the mice were grouped so that the average luciferase activity of each group was equal, and the compound IA was administered orally at 200 mg/kg/day every day for 28 days. The treatment control group received subcutaneous administration of zoledronic acid, which is the third-generation bisphosphonate preparation, at 0.2 mg/kg/day twice a week. For the evaluation of bone lesions, the graft site was imaged by μCT on Day 36 after transplantation.

In data set [2] the test system is mouse model intratibially transplanted with a PC-3 human prostate cancer cell line. Kind of data set: Abnormal bone formation and bone resorption in mouse model intratibially transplanted with PC-3 cells (μCT). Type of data set: in vivo. To be noted: PC-3 in mouse tibia, 200 mg/kg/day orally every day for 10 days. As for the experimental part:
Inhibitory Effect on the Abnormal Bone Formation and Bone Resorption in the Mouse Model Intratibially Transplanted with a PC-3 Human Prostate Cancer Cell Line
The PC-3 human prostate cancer cell line was transplanted in the mouse tibia at 2×10^6 cells/15 μL. On the following day of transplantation, the mice were grouped so that the average body weight of the mice in each group was equal, and the compound IA was administered orally at 200 mg/kg/day every day for 10 days. On Day 11 after transplantation, the graft site was imaged by μCT and bone lesions were evaluated.

For `CNC(=O)c1cc2c(Oc3ccc(NC(=S)NC(=O)Cc4ccccc4)cc3F)ccnc2cc1OC` [Compound IA, 4-[2-fluoro-4-[[[(2-phenylacetyl)amino]thioxomethyl]amino]-phenoxy]-7-methoxy-N-methyl-6-quinolinecarboxamide], the “inhibitory effect on abnormal bone metabolism (bone resorption and bone formation) compared with zoledronic acid” value in data set [1] (200 mg/kg/day orally for 28 days) was “better inhibitory effect on abnormal bone metabolism (bone resorption and bone formation) than zoledronic acid”. In addition, the “bone destruction and deformation at the graft site (μCT, FIG. 2)” value in data set [1] (compound IA 200 mg/kg/day orally for 28 days, zoledronic acid 0.2 mg/kg/day s.c. twice a week, μCT on Day 36) is “remarkably inhibited bone destruction and deformation”. Further, in data set [2], the “bone mass (inhibition of accelerated metabolic bone destruction and formation of abnormal brittle bone)” value is “maintained a normal level of bone mass”; the “death and body weight reduction” value is on record as “without causing death or reducing body weight”. For the same compound, the “abnormal bone formation in the bone at the graft site (μCT, FIG. 1)” value in data set [2] (μCT on Day 11 after transplantation) is listed as “evidently inhibited the abnormal bone formation”.
